As usually defined, the IC50 is the concentration that gives 50% inhibition.

The values below come from patent publication US11834453B2, “Substituted pyrimido[5,4-d]pyrimidines as HER2 inhibitors” (Array BioPharma Inc., priority 2020, dated 2023).

One experiment deals with EGFR (Homo sapiens (Human), UniProt P00533). As to the kind of experiment: ErbB enzyme assay (CisBio HTRF KinEASE-TK), Assay 3. It is filed as biochemical. In short, it runs like this: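 Inhibition is measured as reduced peptide phosphorylation by HTRF KinEASE-TK at 1 mM ATP and 250 nM substrate, 30 min at 22 °C. Values are IC50s from a 4-parameter logistic fit.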
(In general: Time-resolved FRET reads energy transfer from a long-lived donor to a nearby acceptor.)

The target of experiment [1] is ErbB2 insYVMA (HER2-YVMA, SEQ ID NO: 2) (Homo sapiens, UniProt P04626, INS775YVMA/P1170A). The experiment can be described thus: biochemical. The following applies: ErbB2 insYVMA enzyme assay; read-out: Assay 1 IC50.
The next experiment concerns the target EGFR wild type (EGFR WT) (Homo sapiens (Human), UniProt P00533). As to the kind of experiment: Cellular phosphorylation assay, EGF-stimulated EGFR phosphorylation in engineered NIH 3T3 cells, Phospho-EGFR DuoSet IC ELISA, Assay 5. It is filed as cell-based. The procedure: NIH 3T3 cells were engineered to express EGFR wild type (EGFR WT; Assay 5, no footnote) with constructs obtained from GenScript and grown in DMEM supplemented with 10% fetal bovine serum and 15 μg/ml blasticidin. Cells were plated in 96-well plates at 20,000 cells/well and allowed to attach overnight at 37° C./5% CO2. Serially diluted compounds were added to the plates for 1 hour at 37° C./5% CO2. EGFR WT cells were stimulated with 100 ng/ml rEGF for an additional 10 minutes at 37° C./5% CO2. After compound incubation, medium was removed from the cells, which were then lysed in 100 μL/well lysis buffer according to the manufacturer's protocol (R&D Systems, DYC1095, Human Phospho-EGFR DuoSet IC ELISA). Same protocol was followed to determine the total levels of phospho-EGFR by measuring the optical density of each well using a VersaMax microplate reader. Curves were then generated and IC50 values calculated.

The target in experiment [2] is ErbB2 with Exon 20 YVMA insertion (HER2-YVMA) (Homo sapiens (Human), UniProt P04626, INS775YVMA). The experiment can be described thus: Cellular phosphorylation assay, constitutive ErbB2 phosphorylation (Y1196) in engineered NIH 3T3 cells, Assay 4. It counts as cell-based. A digest of the protocol: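 Engineered NIH 3T3 cells expressing HER2-YVMA treated with compounds 1 h at 37 °C, then formaldehyde-fixed and methanol-permeabilized. pErbB2 Y1196 detected by in-cell infrared immunofluorescence, normalized to GAPDH. IC50 from the normalized curves.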

A further experiment has as its target ErbB2 WT (Homo sapiens (Human), UniProt P04626). The experiment can be described thus: ErbB enzyme assay (CisBio HTRF KinEASE-TK), Assay 2. It counts as biochemical. In short, it runs like this:
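ErbB2 phosphorylates 250 nM biotin-TK substrate at 1 mM ATP in 25 mM HEPES pH 7.4, 10 mM MgCl2, 0.01% Triton X-100 and 2% DMSO, for 30 min at 22 °C. Product is detected by HTRF with Sa-XL665 and TK-Ab-Cryptate. Percent of control is set by DMSO-only wells and pre-quenched wells.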

Sequence of ErbB2 insYVMA (HER2-YVMA, SEQ ID NO: 2) (P04626 with tags, fused parts or gaps INS775YVMA/P1170A limits assumed): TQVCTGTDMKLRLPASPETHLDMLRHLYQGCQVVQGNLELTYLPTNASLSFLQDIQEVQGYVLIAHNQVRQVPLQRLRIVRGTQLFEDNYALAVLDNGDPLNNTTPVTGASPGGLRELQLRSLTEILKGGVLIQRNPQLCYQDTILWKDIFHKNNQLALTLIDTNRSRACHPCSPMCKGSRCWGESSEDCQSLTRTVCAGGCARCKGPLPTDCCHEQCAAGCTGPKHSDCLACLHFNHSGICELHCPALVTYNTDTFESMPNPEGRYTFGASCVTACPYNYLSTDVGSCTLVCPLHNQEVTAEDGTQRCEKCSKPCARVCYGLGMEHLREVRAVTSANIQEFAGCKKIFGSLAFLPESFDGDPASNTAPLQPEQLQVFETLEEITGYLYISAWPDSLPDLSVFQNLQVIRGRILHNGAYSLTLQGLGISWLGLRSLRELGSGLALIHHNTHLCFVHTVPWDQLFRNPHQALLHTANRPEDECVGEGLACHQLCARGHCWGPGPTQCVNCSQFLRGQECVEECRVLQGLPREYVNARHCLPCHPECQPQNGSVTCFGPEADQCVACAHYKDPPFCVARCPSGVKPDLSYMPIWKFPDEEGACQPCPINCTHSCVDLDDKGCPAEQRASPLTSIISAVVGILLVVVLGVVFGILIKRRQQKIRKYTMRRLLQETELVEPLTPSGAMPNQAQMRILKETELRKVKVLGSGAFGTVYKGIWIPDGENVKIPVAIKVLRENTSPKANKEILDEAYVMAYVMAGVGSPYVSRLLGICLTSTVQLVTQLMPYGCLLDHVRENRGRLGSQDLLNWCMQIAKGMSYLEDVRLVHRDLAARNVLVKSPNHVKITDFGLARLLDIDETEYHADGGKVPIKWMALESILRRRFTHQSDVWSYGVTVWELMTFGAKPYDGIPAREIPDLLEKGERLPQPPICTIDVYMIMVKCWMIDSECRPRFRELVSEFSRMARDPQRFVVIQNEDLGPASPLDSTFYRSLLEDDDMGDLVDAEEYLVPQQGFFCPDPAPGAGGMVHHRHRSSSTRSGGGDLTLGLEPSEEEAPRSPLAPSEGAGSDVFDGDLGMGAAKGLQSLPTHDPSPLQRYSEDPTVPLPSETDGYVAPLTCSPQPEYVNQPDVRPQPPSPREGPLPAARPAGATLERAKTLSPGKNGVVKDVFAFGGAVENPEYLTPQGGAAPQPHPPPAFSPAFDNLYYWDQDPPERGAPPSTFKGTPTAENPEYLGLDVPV
Sequence of ErbB2 WT (P04626 23-1255): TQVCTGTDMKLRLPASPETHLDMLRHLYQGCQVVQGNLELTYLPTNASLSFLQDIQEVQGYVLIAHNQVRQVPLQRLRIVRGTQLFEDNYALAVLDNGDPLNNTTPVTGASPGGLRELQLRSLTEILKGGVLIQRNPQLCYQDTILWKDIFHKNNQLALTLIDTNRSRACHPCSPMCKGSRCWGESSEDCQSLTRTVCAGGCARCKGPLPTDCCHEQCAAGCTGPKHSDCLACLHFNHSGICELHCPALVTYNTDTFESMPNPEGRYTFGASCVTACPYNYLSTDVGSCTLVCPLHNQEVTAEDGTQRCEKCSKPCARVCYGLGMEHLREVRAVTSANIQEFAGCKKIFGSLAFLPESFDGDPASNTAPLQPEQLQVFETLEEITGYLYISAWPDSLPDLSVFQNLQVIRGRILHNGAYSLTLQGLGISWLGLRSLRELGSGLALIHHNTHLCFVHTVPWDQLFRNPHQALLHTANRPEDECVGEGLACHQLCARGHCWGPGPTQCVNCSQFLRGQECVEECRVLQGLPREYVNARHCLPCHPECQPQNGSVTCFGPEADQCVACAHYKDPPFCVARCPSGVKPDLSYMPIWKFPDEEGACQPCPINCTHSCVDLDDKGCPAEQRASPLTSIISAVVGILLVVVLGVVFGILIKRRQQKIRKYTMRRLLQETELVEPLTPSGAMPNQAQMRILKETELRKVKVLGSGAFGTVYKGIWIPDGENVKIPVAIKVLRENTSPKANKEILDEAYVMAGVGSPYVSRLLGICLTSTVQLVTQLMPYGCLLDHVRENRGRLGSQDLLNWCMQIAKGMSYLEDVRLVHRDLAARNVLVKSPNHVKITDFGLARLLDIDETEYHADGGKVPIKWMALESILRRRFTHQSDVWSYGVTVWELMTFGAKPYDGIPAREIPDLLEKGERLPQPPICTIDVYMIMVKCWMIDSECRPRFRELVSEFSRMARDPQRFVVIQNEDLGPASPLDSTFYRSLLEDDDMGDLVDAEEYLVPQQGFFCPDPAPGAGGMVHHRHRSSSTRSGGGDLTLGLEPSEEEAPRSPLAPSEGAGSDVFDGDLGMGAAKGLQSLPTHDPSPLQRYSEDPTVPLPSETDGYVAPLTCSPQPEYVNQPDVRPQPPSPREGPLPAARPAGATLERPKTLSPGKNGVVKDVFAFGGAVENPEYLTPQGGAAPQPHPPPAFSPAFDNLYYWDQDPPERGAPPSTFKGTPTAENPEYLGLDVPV
Sequence of ErbB2 with Exon 20 YVMA insertion (HER2-YVMA) (P04626 other isoform, or with tags, fused parts or gaps ins YVMA behind 775): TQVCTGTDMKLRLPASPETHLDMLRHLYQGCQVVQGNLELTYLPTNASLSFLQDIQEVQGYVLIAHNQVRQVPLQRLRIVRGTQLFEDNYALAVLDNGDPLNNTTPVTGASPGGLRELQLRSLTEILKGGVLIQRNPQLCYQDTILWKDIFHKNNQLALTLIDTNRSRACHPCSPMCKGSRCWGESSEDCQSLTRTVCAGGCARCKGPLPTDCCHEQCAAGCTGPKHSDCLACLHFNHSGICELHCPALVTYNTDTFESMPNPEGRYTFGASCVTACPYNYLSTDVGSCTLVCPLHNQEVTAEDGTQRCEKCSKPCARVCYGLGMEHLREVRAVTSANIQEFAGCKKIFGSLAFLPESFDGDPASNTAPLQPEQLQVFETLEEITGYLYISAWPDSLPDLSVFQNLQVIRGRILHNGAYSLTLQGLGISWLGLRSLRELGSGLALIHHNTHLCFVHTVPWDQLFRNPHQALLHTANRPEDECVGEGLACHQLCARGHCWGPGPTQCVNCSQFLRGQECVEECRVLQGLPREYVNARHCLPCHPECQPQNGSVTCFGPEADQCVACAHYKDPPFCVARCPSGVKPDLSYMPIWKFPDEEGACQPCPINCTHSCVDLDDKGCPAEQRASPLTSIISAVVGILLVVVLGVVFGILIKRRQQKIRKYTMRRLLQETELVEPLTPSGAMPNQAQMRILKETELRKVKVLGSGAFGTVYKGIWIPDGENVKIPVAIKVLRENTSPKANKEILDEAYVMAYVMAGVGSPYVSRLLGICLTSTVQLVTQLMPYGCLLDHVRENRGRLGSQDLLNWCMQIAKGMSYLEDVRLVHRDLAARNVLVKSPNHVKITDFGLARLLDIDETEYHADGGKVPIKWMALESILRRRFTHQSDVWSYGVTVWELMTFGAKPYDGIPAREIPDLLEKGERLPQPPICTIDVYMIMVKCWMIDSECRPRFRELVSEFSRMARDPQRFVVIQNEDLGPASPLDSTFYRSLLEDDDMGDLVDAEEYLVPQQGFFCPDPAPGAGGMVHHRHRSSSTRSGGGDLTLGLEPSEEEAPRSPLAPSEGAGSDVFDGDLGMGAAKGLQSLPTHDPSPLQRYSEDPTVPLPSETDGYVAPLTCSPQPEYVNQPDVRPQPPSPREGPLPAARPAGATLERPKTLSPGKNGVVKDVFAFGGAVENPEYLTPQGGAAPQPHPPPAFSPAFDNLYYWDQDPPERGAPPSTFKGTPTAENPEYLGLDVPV
Sequence of EGFR wild type (EGFR WT) (P00533 25-1210): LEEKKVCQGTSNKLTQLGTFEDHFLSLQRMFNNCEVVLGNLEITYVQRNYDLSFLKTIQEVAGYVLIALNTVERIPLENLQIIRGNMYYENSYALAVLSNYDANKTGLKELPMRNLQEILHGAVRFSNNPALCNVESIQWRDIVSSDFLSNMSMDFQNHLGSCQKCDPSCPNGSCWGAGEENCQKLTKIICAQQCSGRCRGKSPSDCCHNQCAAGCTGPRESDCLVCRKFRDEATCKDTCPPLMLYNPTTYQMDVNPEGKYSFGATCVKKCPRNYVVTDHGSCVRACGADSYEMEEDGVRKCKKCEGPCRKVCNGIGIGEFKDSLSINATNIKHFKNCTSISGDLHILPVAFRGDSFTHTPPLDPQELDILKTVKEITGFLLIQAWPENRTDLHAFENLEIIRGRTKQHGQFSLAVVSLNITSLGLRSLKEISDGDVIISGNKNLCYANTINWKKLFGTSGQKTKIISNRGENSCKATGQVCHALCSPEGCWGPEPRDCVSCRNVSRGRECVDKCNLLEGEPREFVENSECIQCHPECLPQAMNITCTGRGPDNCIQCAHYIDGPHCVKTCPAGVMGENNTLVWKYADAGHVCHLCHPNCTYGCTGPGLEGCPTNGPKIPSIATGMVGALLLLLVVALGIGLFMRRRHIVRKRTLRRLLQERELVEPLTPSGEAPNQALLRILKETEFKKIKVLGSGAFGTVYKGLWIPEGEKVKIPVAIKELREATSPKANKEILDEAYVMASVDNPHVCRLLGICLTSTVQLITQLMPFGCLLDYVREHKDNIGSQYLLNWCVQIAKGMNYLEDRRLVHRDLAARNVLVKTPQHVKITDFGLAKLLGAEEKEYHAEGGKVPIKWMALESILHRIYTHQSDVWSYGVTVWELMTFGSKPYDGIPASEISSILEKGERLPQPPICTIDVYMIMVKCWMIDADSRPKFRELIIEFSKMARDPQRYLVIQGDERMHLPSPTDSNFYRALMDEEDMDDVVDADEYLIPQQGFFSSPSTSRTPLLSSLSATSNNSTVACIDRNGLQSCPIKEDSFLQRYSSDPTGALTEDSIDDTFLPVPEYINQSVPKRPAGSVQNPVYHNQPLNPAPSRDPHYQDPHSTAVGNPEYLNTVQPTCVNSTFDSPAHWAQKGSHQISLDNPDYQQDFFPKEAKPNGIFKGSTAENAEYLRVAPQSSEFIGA

As to `Cc1cc(Nc2ncnc3cnc(O[C@@H]4CN(C)C[C@@H]4F)nc23)ccc1Oc1ccc2c(c1)ncn2C` [Example 87, 6-(((3R,4S)-4-fluoro-1-methylpyrrolidin-3-yl)oxy)-N-(3-methyl-4-((1-methyl-1H-benzo[d]imidazol-5-yl)oxy)phenyl)pyrimido[5,4-d]pyrimidin-4-amine], the IC50 on EGFR was no less than 10 µM; in experiment [1], 69.5 nM; against EGFR wild type (EGFR WT), no less than 5 µM; in experiment [2] it was 95.1 nM; against ErbB2 WT, 346 nM.

`CC(=O)O[C@H]1CN(c2ncc3ncnc(Nc4ccc(Oc5ccc6c(c5)ncn6C)c(C)c4)c3n2)C[C@H]1F` [Example 90, (3S,4R)-4-fluoro-1-(8-((3-methyl-4-((1-methyl-1H-benzo[d]imidazol-5-yl)oxy)phenyl)amino)pyrimido[5,4-d]pyrimidin-2-yl) pyrrolidin-3-yl acetate]: the IC50 at EGFR was no less than 10 µM; in experiment [1], 41 nM; on EGFR wild type (EGFR WT) it was no less than 5 µM; in experiment [2] it was 29 nM; on ErbB2 WT it was 93.1 nM.

As for `CON1CCN(c2ncc3ncnc(Nc4ccc(Oc5ccn6ncnc6c5)c(C)c4F)c3n2)CC1` [Example 95, N-(4-([1,2,4]triazolo[1,5-a]pyridin-7-yloxy)-2-fluoro-3-methylphenyl)-6-(4-methoxypiperazin-1-yl)pyrimido[5,4-d]pyrimidin-4-amine], the IC50 on EGFR is no less than 10 µM; in experiment [1], 25.2 nM; against EGFR wild type (EGFR WT) it was no less than 5 µM; in experiment [2], 179 nM; against ErbB2 WT, 95.1 nM.

For `CON1CCN(c2ncc3ncnc(Nc4ccc(Oc5ccn6ncnc6c5)c(C)c4)c3n2)CC1` [Example 96, N-(4-([1,2,4]triazolo[1,5-a]pyridin-7-yloxy)-3-methylphenyl)-6-(4-methoxypiperazin-1-yl)pyrimido[5,4-d]pyrimidin-4-amine], the IC50 was 8.89 µM on EGFR; 23.1 nM in experiment [1]; no less than 5 µM against EGFR wild type (EGFR WT); 96.1 nM in experiment [2]; 81.2 nM against ErbB2 WT.

On to `CON1CCN(c2ncc3ncnc(Nc4ccc(Oc5ccc6c(c5)ncn6C)c(C)c4Cl)c3n2)CC1` [Example 98, N-(2-chloro-3-methyl-4-((1-methyl-1H-benzo[d]imidazol-5-yl)oxy)phenyl)-6-(4-methoxypiperazin-1-yl)pyrimido[5,4-d]pyrimidin-4-amine], for which the IC50 against EGFR was no less than 10 µM; in experiment [1] it was 232 nM; on EGFR wild type (EGFR WT) it was no less than 5 µM; in experiment [2] it was 266 nM; against ErbB2 WT, 1950 nM.

`Cc1cc(Nc2ncnc3cnc(N(C)[C@H]4CN(C)C[C@H]4F)nc23)ccc1Oc1ccc2c(c1)ncn2C` [Example 99, N2-((3S,4R)-4-fluoro-1-methylpyrrolidin-3-yl)-N2-methyl-N8-(3-methyl-4-((1-methyl-1H-benzo[d]imidazol-5-yl)oxy)phenyl)pyrimido[5,4-d]pyrimidine-2,8-diamine]: the half-inhibitory concentration (IC50) at EGFR is 6.47 µM; in experiment [1], 17.1 nM; on EGFR wild type (EGFR WT) it was no less than 5 µM; in experiment [2], 44.5 nM; at ErbB2 WT, 18 nM.

In the case of `Cc1cc(Nc2ncnc3cnc(N(C)CCC(C)(C)O)nc23)ccc1Oc1ccc2c(c1)ncn2C` [Example 102, 2-methyl-4-(methyl(8-((3-methyl-4-((1-methyl-1H-benzo[d]imidazol-5-yl)oxy)phenyl)amino)pyrimido[5,4-d]pyrimidin-2-yl)amino)butan-2-ol], the IC50 is 2.73 µM at EGFR; 23.8 nM in experiment [1]; no less than 5 µM against EGFR wild type (EGFR WT); 9.4 nM in experiment [2]; 20.7 nM on ErbB2 WT.

As to `Cc1cc(Nc2ncnc3cnc(NCc4cnn(C)c4C)nc23)ccc1Oc1ccc2c(c1)ncn2C` [Example 103, N2-((1,5-dimethyl-1H-pyrazol-4-yl)methyl)-N8-(3-methyl-4-((1-methyl-1H-benzo[d]imidazol-5-yl)oxy)phenyl)pyrimido[5,4-d]pyrimidine-2,8-diamine], the IC50 against EGFR is no less than 10 µM; in experiment [1], 20.3 nM; on EGFR wild type (EGFR WT), no less than 5 µM; in experiment [2], 61.5 nM; against ErbB2 WT, 56.6 nM.
